Test results from patent publication US20050064470A1, “High throughput screening methods for identifying RNA binding compounds” (priority 2003, published 2005).

Experiments:
wild-type TAR RNA = experiment: Fluorescence polarization anisotropy (FPA) binding to fluorescein-labeled wild-type TAR RNA; parameters: species or system HIV-1; conditions: for Kd / specificity for wild-type TAR over bulgeless TAR (in words) / affinity for TAR RNA (in words): FPA; for Kd: 20 mM KCl, fluorescein-tagged wild-type TAR RNA, room temperature, read-out: Kd wt TAR; for specificity for wild-type TAR over bulgeless TAR (in words): wild-type vs bulge-deleted TAR; for Binding Specificity (Kd (mutTAR)/Kd (wtTAR)): ratio of Kd for bulge-deleted TAR to Kd for wild-type TAR, in text as fold decrease of affinity
Method: (§1) β-Peptide and mutant β-peptide binding affinities to TAR RNA were measured by fluorescence anisotropy method on a PTI (Photon Technology International) fluorescence spectrophotometer. A T-format setup based on two emission channels was used. The intensities of the parallel and perpendicular components simultaneously were obtained in one measurement using two separate detectors. The excitation side is a motorized Glan-Thompson polarizer and emission sides are two film polarizers placed in vertical and horizontal orientation, respectively. The anisotropy can be calculated from equation 1, [formula] • where III and I⊥ are fluorescence intensities observed when the emission polarizer is oriented parallel and perpendicular to the direction of the polarized excitation, respectively.
(§2) The fluorescein-labeled TAR RNA (F-TAR, either wt TAR or bulge-less TAR, see FIG. 1) was excited at 490 nm and two polarized emissions were monitored at 512 nm. The slits were set at 8 nm for both excitation and emission light. The integration time was 20 seconds. All data were measured in a Sub-Micro cuvette (Starna Cell, Inc.) with a starting volume of 160 μL. Each addition of β-peptide/mutant β-peptide was followed by one-minute equilibration before the fluorescence signal was recorded. All experiments were done at room temperature and in a TKT buffer (TKT: 50 mM Tris-HCl, pH=7.4, 20 mM KCl and 0.02% Tween20). The initial concentration of F-TAR was around 25 nM. The stock concentration of β-peptide/mutant β-peptide for titration was 2 μM. The experiment was repeated three times independently. For every single point, five measurements were made and their average anisotropy value was used for calculation of the KD.
(§3) The binding dissociation constant (KD) is determined by fitting the plot of anisotropy of F-TAR versus the concentration of the β-peptide using equation 3, [formula] • where A is the relative fluorescence anisotropy of dye-labeled TAR RNA. The capacity for binding, Cap, is the maximum binding ability of a small molecule. C is the total concentration of β-peptide added. a is a correction factor.

[1] = target: bulge-deleted (mut) TAR RNA; experiment: Fluorescence polarization anisotropy (FPA) binding to fluorescein-labeled bulge-deleted TAR RNA; parameters: species or system HIV-1; conditions: for Kd: FPA, 20 mM KCl, fluorescein-tagged bulge-deleted TAR RNA, room temperature
Method: as §1, §2, §3

Substance | Kd (wild-type TAR RNA) [nM] | specificity for wild-type TAR over bulgeless TAR (in words) (wild-type TAR RNA) | Binding Specificity (Kd (mutTAR)/Kd (wtTAR)) (wild-type TAR RNA) | Kd [1] [nM] | affinity for TAR RNA (in words) (wild-type TAR RNA) | affinity for wild-type TAR lower than that of α-peptide 3 (wild-type TAR RNA; compared to α-peptide 3) | Binding Specificity (Kd (mutTAR)/Kd (wtTAR)) (wild-type TAR RNA; listed as β-peptide 1) | dissociation constant ratio (Krel) relative to α-peptide 3 (wild-type TAR RNA; value above 1.0 denotes stronger binding of the analogue relative to the native peptide) | affinity for bulgeless TAR reduced compared to α-peptide 3 ([1]; compared to α-peptide 3)
N-Tyr-Gly-Arg-Lys-Lys-Arg-Arg-Gln-Arg-Arg-Arg [α-TatR 3, reference compound] | 1.8 ± 0.5 | little specificity | 1 | 1.1 ± 0.2 |  |  |  |  | 
β-amino acid oligomer (β-peptide) analogue of Tat 47-57 (YGRKKRRQRRR, SEQ ID NO:1) [wt β-peptide 1] | 28 ± 4 | enhanced specificity | 10 | 281 ± 68 | nanomolar affinity | roughly 15 fold | about 10 | 0.072 | more than two orders of magnitude
β-peptide in which all arginine side chains have been replaced by lysine side chains (YGKKKKKQKKK; SEQ ID NO:2) [mut β-peptide 2] | 16 ± 2 | less specificity | 2 | 33 ± 2 | high affinity |  |  |  | 
